Values after ≈ are worked out from the molar mass of the structure shown. Read-outs that look alike come from different tables or passages of the source.
Tests used:
Type in all cases: cell-based
[1] = test system: Acinetobacter baumannii AC-54/97 (IMP-2); test: Antimicrobial susceptibility testing, MIC by microdilution broth method; conditions: Acinetobacter baumannii, read-out: MIC
Description: (§1) Bacterial strains were obtained from the ATCC or CCUG culture collections or present in the authors' collection of clinical isolates. Compounds were re-suspended in dimethyl sulfoxyde (DMSO) at a final concentration of 10 mg/ml and subsequently diluted in the culture medium. The minimum inhibitory concentrations (MICs) of the compounds of the invention were determined using the microdilution broth method using Mueller-Hinton broth as recommended by the Clinical Laboratory Standards Institute (CLSI [11]). Bacterial inoculum was 5×10^4 CFU/well. MICs were recorded after 18-24 hours incubation at 35-37° C.
(§2) The Antibacterial activity of compound 28 was also tested on a panel of Gram-negative and Gram-positive clinical isolates, showing various antimicrobial susceptibility profiles (Table 4). The class of drugs for which the isolate was resistant to is indicated in column 2 (PEN, penicillins; ES-CEPH, expanded-spectrum cephalosporins; CARB, carbapenems; AZT; aztreonam; AG, aminoglycosides; FQ, fluoroquinolones; SXT, trimethoprim/sulfamethoxazole; FOS, fosfomycin; GLY, glycopeptides; LNZ, linezolid; COL-R, colistin resistant; COL-S colistin sensitive; PDR, poly-drug resistant).

[2] = test system: Enterobacter cloacae VA-417/02 (VIM-4); test: as above; conditions: Enterobacter cloacae, read-out: MIC
Description: as §1, §2

[3] = test system: Burkholderia cepacia RII; test: Bactericidal activity (MBC)

## N=C(N)NCCCCCCCCN(CCCCCCCCNC(=N)NCC1CC1)C(=O)N(CCCCCCCCNC(=N)N)CCCCCCCCNC(=N)NCC1CC1 [Compound 28, 1,3-bis(8-(3-(cyclopropylmethyl)guanidino)octyl)-1,3-bis(8-guanidinooctyl)urea]
[1]; Acinetobacter baumannii AC-54/97 (IMP-2), Tables 2 and 3
  MIC: 2 µg/mL (≈ 2.37 µM)
[1]; Table 4, Acinetobacter baumannii AC-54/97, resistance profile PEN, ES-CEPH, CARB, AZT, AG, FQ, FOS, SXT
  MIC: 4 µg/mL (≈ 4.73 µM)
[2]; Enterobacter cloacae VA-417/02 (VIM-4), Tables 2 and 3
  MIC: 1 µg/mL (≈ 1.18 µM)
[2]; Table 4, Enterobacter cloacae VA-417/02, resistance profile PEN, CEPH, CARB, AG, FQ
  MIC: 2 µg/mL (≈ 2.37 µM)
[3]
  MBC: 8 µg/mL (≈ 9.46 µM)

Source: patent publication US10004702B2, “Linear guanidine derivatives, methods of preparation and uses thereof” (LEAD DISCOVERY SIENA S.R.L., priority 2014, dated 2018)
